The record followed here is patent publication US5721366A, “Platelet aggregation inhibitors” (G. D. Searle & Co, priority 1995, dated 1998).

Experiment [1] concerns Dog platelet aggregation (platelet-rich plasma). Put plainly: In-Vitro Platelet Aggregation in PRP (Dog), collagen-induced. The format is cell-based. Conditions: for IC50: collagen-induced aggregation (33 μg/ml final), 37° C.; for inhibition at 1 µM: collagen-induced aggregation. The procedure: In-Vitro Platelet Aggregation in PRP--(Dog)
Healthy male or female dogs were fasted for 8 hours prior to drawing blood; then 60 ml whole blood was collected using a butterfly needle and 30 cc plastic syringe with 6 ml of 0.129M buffered sodium citrate (3.8%) (drawn from a minimum of 3 dogs and blood was pooled). The syringe was rotated carefully as blood was drawn to mix the citrate. Platelet-rich plasma (PRP) was prepared by centrifugation at 975×g for 3.17 minutes at room temperature, allowing the centrifuge to coast to a stop without braking. The PRP was removed from the blood with a plastic pipette and placed in a plastic capped 50 ml Corning conical sterile centrifuge tube which was held at room temperature. Platelet poor plasma (PPP) was prepared by centrifuging the remaining blood at 2000×g for 15 minutes at room temperature allowing the centrifuge to coast to a stop without braking. The platelet count in the PRP was routinely 2-4×10^8 platelets per ml. 400 μl of the PRP preparation and 50 μl of the compound to be tested or saline were preincubated for 2 minutes at 37° C. in a BioData aggregometer (BioData, Horsham, Pa.). 50 μl of collagen (diluted 1:3 with 5% dextrose and water solution, 33 μg/ml final concentration, equine tendon, Chronolog, Havertown, Pa.) was added to the cuvettes and the aggregation was monitored for 3 minutes. All compounds are tested in duplicate.
Results are calculated as follows:
Percent of control=[(maximal OD minus initial OD of compound) divided by (maximal OD minus initial OD of control saline)]×100. The % inhibition=100-(percent of control).
(§1) (NT in the following table indicates not tested.)

Experiment [2] has as its system Human platelet aggregation (platelet-rich plasma). Put plainly: Inhibition of Human Platelet Aggregation (PRP), collagen-induced. The format is cell-based. Conditions: collagen-induced aggregation (4 μg/ml final), 37° C. The procedure: Inhibition of Human Platelet Aggregation (PRP)
Platelet rich plasma was prepared from citrated whole blood (3.8% Na citrate, 1:10 in 30 ml blood) withdrawn from the antecubital vein (n=1). PRP was prepared by centrifugation (Sorvall RC3C, DuPont, Wilmington, Del.) of the whole blood at 1000×g for 3 min, allowing the centrifuge to stop without braking. Platelet poor plasma (PPP) was prepared by centrifugation of PRP at 2000×g for 10 min. […] Aggregation was measured in a 4 channel aggregometer (model PAP-4C, Bio/Data Corp., Hatboro, Pa.). Aliquots of PPP were used to standardize the aggregometer for measurement of maximum light transmission. Platelet aggregation was measured as an increase in light transmission.
PRP (430 μl aliquot) was preincubated with 50 μl of various concentrations of compound (dissolved in 10% ETOH/water at a concentration of 10^-3 M. Compounds were diluted to desired concentration with 0.9% NaCl) for 2 min at 37° C., with stirring at 900 rpm, in the aggregometer. The stock collagen (Chronolog, Havertown, Pa., equine tendon) was diluted 1:10 with a 5% dextrose and water solution. The vehicle control response was obtained by adding 20 μl diluted collagen to the untreated aliquot of PRP+50 μl saline. Final collagen concentration was 4 μg/ml. Aggregation was recorded for 3 min following the addition of collagen. […] Percent inhibition was calculated by comparing treated and control samples. IC50 's were calculated graphically from dose-response curves. Average values and standard errors were calculated using the IC50 's of the individual experiments. Statistical analyses were done by an unequal variance, unpaired Student's t-test [Minitab Reference Manual, Minitab Inc., State College, Pa. (1988)]. Statistical significance was assumed when p<0.05 was found.
as §1

The mark [3] stands for this setting: Canis lupus familiaris, Platelet.

The term IC50 denotes the concentration that gives 50% inhibition. By inhibition is commonly meant how much of the control response was suppressed. Read a high inhibition as a response far below the control.

Structures can show the parent of a compound that is named as a salt.

“3[S]-[[[[1-[4-(aminoiminomethyl)phenyl]-2-oxo-3-pyrrolidinyl]amino]carbonyl]amino]benzenepropanoic acid trifluoroacetate. Enantiomerically Enriched Isomer B [Example 47]” gave an IC50 in experiment [1] of 62 nM. Turning to `N=C(N)c1ccc(N2CCCC(CC(=O)NC(CC(=O)O)c3ccco3)C2=O)cc1` (mixture of isomers) [Example 34G, 3-[[[1-[4-(aminoiminomethyl)phenyl]2-oxo-3-piperidinyl]acetyl]amino]-3-(2-furanyl]propanoic acid, diastereomers], the IC50 in experiment [1] (setting [3]) was determined as 190 nM. On the same count and under the same terms, as for `N=C(N)c1ccc(N2CCC(CC(=O)NC(CC(=O)O)c3ccoc3)C2=O)cc1` (single isomer, unassigned) [Example 51], the figure is 50 nM. As for `C=C[C@H](CC(=O)O)NC(=O)CC1CCN(c2ccc(C(=N)N)cc2)C1=O` (single isomer, unassigned; isomer a) [Example 4, 3S-[[[1-[4-(aminoiminomethyl)phenyl]-2-oxo-3-pyrrolidinyl]acetyl]amino]-4-pentenoic acid, monohydrochloride, enantiomerically enriched isomer A.], the IC50 was determined as 55 nM in experiment [2] and 52 nM in experiment [1]. With `C=C[C@H](CC(=O)O)NC(=O)CC1CCCN(c2ccc(C(=N)N)cc2)C1=O` (single isomer, unassigned; isomer a) [Example 34J], in experiment [1] (Canis lupus familiaris), the inhibition at 1 µM was found to be 13%. Regarding `N=C(N)c1ccc(N2CCC(NC(=O)NCCC(=O)O)C2=O)cc1` (single isomer, unassigned; isomer a) [Example 41, 3-[[[[1-[4-(aminoiminomethyl)phenyl]-2-oxo-3-pyrrolidinyl]amino]carbonyl]amino]propanoic acid trifluoroacetate. Enantiomerically Enriched Isomer A.], in experiment [2] (Homo sapiens, Platelet), half-maximal inhibition (IC50) required 150 nM. In addition, the inhibition at 1 µM in experiment [1] (Canis lupus familiaris) worked out at 30%. As to `C=C[C@H](CC(=O)O)NC(=O)CC1CCN(c2ccc(C(=N)N)cc2)C1=O` (single isomer, unassigned; isomer b) [Example 6, 3S-[[[1-[4-(aminoiminomethyl)phenyl]-2-oxo-3-pyrrolidinyl]acetyl]amino]-4-pentenoic acid, enantiomerically enriched isomer B], the IC50 was 850 nM in experiment [2] and 1600 nM in experiment [1]. As to `N=C(N)c1ccc(N2CCCC(CC(=O)NCCC(=O)O)C2=O)cc1` (single isomer, unassigned; isomer b) [Example 34B, 3-[[[1-[4-(aminoiminomethyl)phenyl]-2-oxo-3-piperidinyl]acetyl]amino]propanoic acid, enantiomerically enriched isomer B], the IC50 in experiment [1] (setting [3]) was 240 nM. Consider `N=C(N)c1ccc(N2CCCC(CC(=O)NC(CC(=O)O)c3ccsc3)C2=O)cc1` (single isomer, unassigned; isomer b) [Example 34C, 3-[[[1-[4-(aminoiminomethyl)phenyl]-2-oxo-3-piperidinyl]acetyl]amino]-3-(3-thienyl)propanoic acid, enantiomerically enriched isomer B], for which, in experiment [1] (setting [3]), the midpoint of inhibition, the IC50, lay at 160 nM. The same measure, in the same setting: with `N=C(N)c1ccc(N2CCCC(CC(=O)NC(CC(=O)O)c3ccoc3)C2=O)cc1` (single isomer, unassigned; isomer b) [Example 34E] the figure was 70 nM; with `C=C[C@H](CC(=O)O)NC(=O)CC1CCCN(c2ccc(C(=N)N)cc2)C1=O` (single isomer, unassigned; isomer b) [Example 34L], 59 nM.

In experiment [1] (setting [3]), `C#C[C@H](CC(=O)O)NC(=O)CC1CCCN(c2ccc(C(=N)N)cc2)C1=O` (single isomer, unassigned; isomer b) [Example 34N] registered an IC50 of 59 nM. Take `N=C(N)c1ccc(N2CCC(CC(=O)NCCC(=O)O)C2=O)cc1` (single isomer, unassigned; isomer b) [Example 36, 3-[[[1-[4-(aminoiminomethyl)phenyl]-2-oxo-3-pyrrolidinyl]acetyl]amino]propionic acid, trifluoroacetate, enantiomerically enriched isomer B.]: the IC50 came to 110 nM in experiment [2] (Homo sapiens, Platelet) and 91 nM in experiment [1] (setting [3]). In turn, `N=C(N)c1ccc(N2CCC(NC(=O)NCCC(=O)O)C2=O)cc1` (single isomer, unassigned; isomer b) [Example 43, 3-[[[[1-[4-(aminoiminomethyl)phenyl]-2-oxo-3-pyrrolidinyl]amino]carbonyl]amino]propanoic acid trifluoroacetate. Enantiomerically Enriched Isomer B.] returned an IC50 in experiment [1] (setting [3]) of 90 nM. Consider `C[C@H](CC(=O)O)NC(=O)NC1CCN(c2ccc(C(=N)N)cc2)C1=O` (single isomer, unassigned; isomer b) [Example 45], for which, in experiment [1] (setting [3]), half-maximal inhibition (IC50) required 39 nM. In the case of `N=C(N)c1ccc(N2CCC(NC(=O)NC[C@H](NC(=O)OCc3ccccc3)C(=O)O)C2=O)cc1` (single isomer, unassigned; isomer b) [Example 49], the IC50 in experiment [1] (setting [3]) was found to be 54 nM. On to `C=C[C@H](CC(=O)O)NC(=O)CC1CCN(c2ccc(C(=N)N)cc2)C1=O` (stereo partly drawn) [Example 2, 3(S)-[[[1-[4-(aminoiminomethyl)phenyl]-2-oxo-3-pyrrolidinyl]acetyl]amino]-4-pentenoic acid, monohydrochloride], for which inhibition in experiment [1] (setting [3]) was half-maximal at 72 nM (IC50).

For `C#C[C@H](CC(=O)O)NC(=O)CC1CCN(c2ccc(C(=N)N)cc2)C1=O` (stereo partly drawn) [Example 14, 3(S) -[[[1-[4-(aminoiminomethyl)phenyl]-2-oxo-3-pyrrolidinyl]acetyl]amino]-4-pentynoic acid], the IC50 in experiment [1] (setting [3]) came out at 120 nM.

The compound `C[Si](C)(C)C#C[C@H](CC(=O)O)NC(=O)CC1CCCN(c2ccc(C(=N)N)cc2)C1=O` (stereo partly drawn) [Example 22, 3S-[[[1-[4-(aminoiminomethyl)phenyl]-2-oxo-3-piperidinyl]acetyl]amino]-5-(trimethylsilyl)-4-pentynoic acid] registered an IC50 in experiment [1] (setting [3]) of 180 nM. Same read-out and setting: as for `C#CC(CC(=O)O)NC(=O)CC1CCCN(c2ccc(C(=N)N)cc2)C1=O` (stereo not shown) [Example 24, 3-[[[1-[4-(aminoiminomethyl)phenyl]-2-oxo-3-piperidinyl]acetyl]amino]-4-pentynoic acid.], the figure is 190 nM. On the same count and under the same terms, with `CC(C)(C)C#CC(CC(=O)O)NC(=O)CC1CCCN(c2ccc(C(=N)N)cc2)C1=O` (stereo not shown) [Example 26, 3-[[[1-[4-(aminoiminomethyl)phenyl]-2-oxo-3-piperidinyl]acetyl]amino]-6,6-dimethyl-4-heptynoic acid] the figure was 590 nM. Same read-out and setting: as for `C=C[C@H](CC(=O)O)NC(=O)CC1CCCN(c2ccc(C(=N)N)cc2)C1=O` (stereo partly drawn) [Example 34, 3(S)-[[[1-[4-(aminoiminomethyl)phenyl]-2-oxo-3-piperidinyl]acetyl]amino]-4-pentenoic acid.], the figure is 120 nM; as for `COc1ccc(C(CC(=O)O)NC(=O)CC2CCCN(c3ccc(C(=N)N)cc3)C2=O)cc1` (stereo not shown) [Example 34I, 3-[[[1-[4-(aminoiminomethyl)phenyl]-2-oxo-3-piperidinyl]acetyl]amino]-3-(4-methoxyphenyl)propanoic acid], 180 nM; as for `N=C(N)c1ccc(N2CCC(NC(=O)NCCC(=O)O)C2=O)cc1` (stereo not shown) [Example 38, 3-[[[[1-[4-(aminoiminomethyl)phenyl]-2-oxo-3-pyrrolidinyl]amino]carbonyl]amino]propionic acid, trifluoroacetate.], 125 nM.
